Laboratory results from US11312718B2, “Formulations of (S)-3-(1-(9H-purin-6-ylamino)ethyl)-8-chloro-2-phenylisoquinolin-1(2H)-one” (Infinity Pharmaceuticals, Inc., priority 2011, dated 2022).
Where a name gives a salt, the structure may show the parent alone.

How the values were obtained:
[1] = Dynamic vapor sorption (DVS) / moisture sorption analysis; assay type: physicochemical; conditions: for hygroscopicity / moisture uptake at 60% RH / moisture uptake at 90% RH: DVS; for moisture uptake at 60% RH / moisture uptake at 90% RH: about 25° C.
Description: Compounds and polymorphs provided herein can be characterized by moisture sorption analysis. This analysis was performed using a Hiden IGAsorp Moisture Sorption instrument. Moisture sorption experiments were carried out at about 25° C. by performing an adsorption scan from about 40% to about 90% RH in steps of about 10% RH and a desorption scan from about […] to about 0% RH in steps of about −10% RH. A second adsorption scan from about 10% to about 40% RH was performed to determine the moisture uptake from a drying state to the starting humidity. Samples were allowed to equilibrate for about four hours at each point or until an asymptotic weight was reached. After the isothermal sorption scan, samples were dried for about one hour at elevated temperature (about 60° C.) to obtain the dry weight. XRPD analysis on the material following moisture sorption was performed to determine the solid form.
Dynamic vapor sorption (DVS) analysis was performed on polymorph Forms A, B, C, D, and E using the DVS instrument and parameters as described above. […] Hysteresis indicative of hemi-hydrate formation was observed.

[2] = Salt screen: solubility in water; assay type: physicochemical
Source text: Salts of a compound of Formula (I) were formed with L-tartaric acid, p-toluenesulfonic acid, D-glucaronic acid, ethane-1,2-disulfonic acid (EDSA), 2-naphthalenesulfonic acid (NSA), hydrochloric acid (HCl) (mono and bis), hydrobromic acid (HBr), citric acid, naphthalene-1,5-disulfonic acid (NDSA), DL-mandelic acid, fumaric acid, sulfuric acid, maleic acid, methanesulfonic acid (MSA), benzenesulfonic acid (BSA), ethanesulfonic acid (ESA), L-malic acid, phosphoric acid, and aminoethanesulfonic acid (taurine).

[3] = Thermal stability (60° C.); conditions: for Thermal stability (60° C.): after 1 week; for polymorph Form changes by XRPD: held at 60° C. for 10 days
Description: Forms A, B, C, D, and E were held at 60° C. for 10 days followed by analysis by XRPD. In each case, 8 mL vials were charged with approximately 20 mg of material, with the exception of Form B for which 10 mg of material was charged. Samples equilibrated in an oven for 10 days.

[4] = Pharmacokinetics, repeat oral dose; assay type: in vivo; conditions: both sexes, human, plasma; Day 14; repeat oral dosing 1, 2, 5, 10 mg (QD Days 1 and 14, BID Days 2 through 13); range over doses
Description: Repeat oral dose administration of a compound of Formula (I) Form C polymorph was administered once per day (QD) in the morning on Days 1 and 14 and twice daily (BID) on Days 2 through 13. Administration of the compound occurred after an overnight fast on Days 1 and 14. Blood samples were collected for plasma analysis on Day 14 following 1, 2, 5 and 10 mg repeat dosing. Blood samples were collected on Day 14 prior to dosing and at 0.5, 1, 1.5, 2, 3, 4, 6, 9, 12, 16 and 24 hours after administration to determine plasma concentrations of the compound of Formula (I) Form C polymorph. Doses of 1 mg, 2 mg, 5 mg, and 10 mg gave a Cmax value range of greater than 10 ng/mL to less than 1,000 ng/mL in a dose dependent manner. In addition doses of 1 mg, 2 mg, 5 mg, and 10 mg gave an AUCtau,ss value range of greater than 100 ng*h/mL to less than 2,500 ng*h/mL, in a dose dependent manner. For the BID regimens, the AUC over a 24 hour interval was obtained by multiplying AUCtau,ss by 2.

[5] = Hold in humidity chambers at 9% RH and 95% RH; assay type: physicochemical; conditions: after 1 week
[6] = Stability of the capsules in a container closure; assay type: physicochemical
Description: The stability of the capsules in a container closure was evaluated at long-term and accelerated conditions. Container closure conditions used were (i) 60-cc high density polyethylene (HDPE), wide mouth, round, white bottle; and (ii) child resistant 33-mm white plastic cap with a heat induction foil inner seal liner. The containers containing the capsules were subjected to the following conditions: (1) −20° C.±5° C.; (2) 5° C.±3° C.; (3) 25° C.±2° C., 60% RH±5% RH; (4) 40° C.±2° C., 75% RH±5% RH; (5) 25° C.±2° C., 60% RH±5% RH, open bottle; (6) 40° C.±2° C., 75% RH±5% RH, open bottle; and (7) 30° C.±2° C., 65% RH±5% RH. Samples of the capsule formulations were analyzed at certain time intervals. The API remained stable at 25° C.±2° C., 60% RH±5% RH and 40° C. 2° C., […]±5% RH for at least 6 months. The API remained stable for at least 6 month at −20° C. 5° C., 5° C. 3° C. when stored in induction-sealed HDPE bottles. The API was stable for at least 6 months at 25° C.±2° C., 60% RH±5% RH and 40° C.±2° C., 75% RH±5% RH in open HDPE bottles.

[7] = Pharmacokinetics, single oral dose; assay type: in vivo; conditions: both sexes, human, plasma, healthy adult subjects, fasting, range over doses
Description: A randomized, double-blind, placebo-controlled, single and repeat dose study was conducted to evaluate the pharmacokinetics (PK) of a compound of Formula (I) Form C polymorph when orally administered to healthy adult male and female subjects. Subjects received a single oral dose of a compound of Formula (I) Form C polymorph under fasting conditions at a dose of 1 mg, 2 mg, 5 mg, 10 mg, 20 mg, and 30 mg. Blood samples were collected for plasma analysis pre-dose, and at 0.5, 1, 1.5, 2, 3, 4, 6, 9, 12, 16, and 24 hours.

[8] = Stability studies of packaged polymorph Forms (temperature and humidity storage); assay type: physicochemical; conditions: LDPE bags, foil or Mylar bag, HDPE drum; 5° C./60% RH, 25° C./60% RH, 40° C./75% RH; up to 9 months; HPLC, Karl Fischer, XRPD
Source text: Polymorphs Form A and Form C were subjected to stability studies where several samples of each given Form were packaged and subjected to the given temperature and humidity conditions as described in Table 10. At each timepoint, a sample for that study was opened and evaluated by HPLC for purity, Karl Fischer for moisture content, and XRPD for confirming the polymorph Form.

[9] = Solubility of polymorph Forms (H2O, SGF); assay type: physicochemical
[10] = Grinding stability (mortar and pestle); assay type: physicochemical; conditions: for Grinding (mortar & pestle): by hand, 2 and 5 min, XRPD
Description: Forms A, C, D, and E were subjected to grinding experiments performed using a mortar and pestle by hand. Samples were lightly grounded for 2 minutes then analyzed by XRPD. Material was then returned to the mortar and pestle and grounded for an additional 3 minutes, for a total of 5 minutes of grinding, and re-analyzed by XRPD.

[11] = human plasma, 37° C., 5 μM; cited from earlier work

C[C@H](Nc1ncnc2[nH]cnc12)c1cc2cccc(Cl)c2c(=O)n1-c1ccccc1 [Bis HCL]
Moisture Sorption (wt % water) ([1]; 60% RH): 60% RH: 9.9 wt % water | Moisture Sorption (wt % water) ([1]; 90% RH): 90% RH: 12.3 wt % water | Solubility in water [2]: 11800 µg/mL

C[C@H](Nc1ncnc2[nH]cnc12)c1cc2cccc(Cl)c2c(=O)n1-c1ccccc1 [EDSA]
Moisture Sorption (wt % water) ([1]; 60% RH): 60% RH: 7.5 wt % water | Moisture Sorption (wt % water) ([1]; 90% RH): 90% RH: 28.1 wt % water | Solubility in water [2]: 9400 µg/mL

C[C@H](Nc1ncnc2[nH]cnc12)c1cc2cccc(Cl)c2c(=O)n1-c1ccccc1 [Form B, (S)-3-(1-(9H-purin-6-ylamino)ethyl)-8-chloro-2-phenylisoquinolin-1(2H)-one]
DVS ([1]; @ 60% RH): 1.0% @ 60% RH | DVS ([1]; @ 90% RH): 1.7% @ 90% RH | hygroscopicity [1]: slightly hygroscopic | moisture uptake at 60% RH ([1]; 60% RH): 1.0 wt % | moisture uptake at 90% RH ([1]; 90% RH): 1.7 wt % | Thermal stability (60° C.) [3]: stable after 1 | polymorph Form changes by XRPD [3]: No polymorph Form changes were observed

C[C@H](Nc1ncnc2[nH]cnc12)c1cc2cccc(Cl)c2c(=O)n1-c1ccccc1 [Form C, (S)-3-(1-(9H-purin-6-ylamino)ethyl)-8-chloro-2-phenylisoquinolin-1(2H)-one]
AUC [4]: 100 to 2500 ng·h/mL | Cmax at 14 days [4]: 10 to 1000 ng/mL | changes in Form [5]: no changes in Form | time the API remained stable ([6]; capsules in HDPE bottle, 25° C.±2° C., 60% RH±5% RH and 40° C. 2° C., 45% RH±5% RH): at least 6 months | time the API was stable ([6]; capsules, 25° C.±2° C., 60% RH±5% RH and 40° C.±2° C., 75% RH±5% RH, open HDPE bottles): at least 6 months | time the API remained stable ([6]; capsules, −20° C. 5° C., 5° C. 3° C., induction-sealed HDPE bottles): at least 6 month | Cmax ([7]; single oral dose 1, 2, 5, 10, 20, 30 mg): 10 to 1500 ng/mL | half-life ([7]; single oral dose 1 to 30 mg): 3 to 10 h | AUC(0-t) ([7]; single oral dose 1 to 30 mg, read-out: AUC0-24): 100 to 4000 ng·h/mL | instability of the polymorphic Form [8]: no indication of instability of the polymorphic Form | DVS ([1]; @ 60% RH): 4.2% @ 60% RH | DVS ([1]; @ 90% RH): 4.9% @ 90% RH | hygroscopicity [1]: moderately hygroscopic | moisture uptake at 60% RH ([1]; 60% RH): 4.2% | moisture uptake at 90% RH ([1]; 90% RH): 4.9% | Solubility (mg/mL) ([9]; H2O): 0.001 (H2O) mg/mL | Solubility (mg/mL) ([9]; SGF): 9.133 (SGF) mg/mL | Form by XRPD after grinding ([10]; after both 2 and 5 minutes of grinding by hand): remain consistent | Grinding (mortar & pestle) [10]: remained Form | Thermal stability (60° C.) [3]: stable after 1 | polymorph Form changes by XRPD [3]: No polymorph Form changes were observed

C[C@H](Nc1ncnc2[nH]cnc12)c1cc2cccc(Cl)c2c(=O)n1-c1ccccc1 [Form D, (S)-3-(1-(9H-purin-6-ylamino)ethyl)-8-chloro-2-phenylisoquinolin-1(2H)-one]
DVS ([1]; @ 60% RH): 0.4% @ 60% RH | DVS ([1]; @ 90% RH): 1.7% @ 90% RH | hygroscopicity [1]: slightly hygroscopic | moisture uptake at 60% RH ([1]; 60% RH): 0.4 wt % | moisture uptake at 90% RH ([1]; 90% RH): 1.7 wt % | Grinding (mortar & pestle) [10]: amorphous | Thermal stability (60° C.) [3]: stable after 1 | polymorph Form changes by XRPD [3]: No polymorph Form changes were observed

C[C@H](Nc1ncnc2[nH]cnc12)c1cc2cccc(Cl)c2c(=O)n1-c1ccccc1 [NDSA]
Solubility in water [2]: 300 µg/mL

C[C@H](Nc1ncnc2[nH]cnc12)c1cc2cccc(Cl)c2c(=O)n1-c1ccccc1 [NSA]
Moisture Sorption (wt % water) ([1]; 60% RH): 60% RH: 0.3 wt % water | Moisture Sorption (wt % water) ([1]; 90% RH): 90% RH: 0.7 wt % water | Solubility in water [2]: 50 µg/mL

CC(C)[N+](C)(CCOC(=O)C1c2ccccc2Oc2ccccc21)C(C)C [propantheline]
plasma stability [11]: intermediate plasma stability

CCCOc1cc(N)ccc1C(=O)OCCN(CC)CC [propoxycaine]
plasma stability [11]: low plasma stability
